Results from patent US20230026969A1, “Oligopeptide, Testing Kit Thereof And Medical Composition Thereof” (China Medical University, priority 2019, published 2023).

Experiments:
OA cartilage [1] = assay: Immunostaining of human OA tissue sections with phage clones: cartilage; format: binding; details: for binding activity to cartilage (DAB intensity): HRP-labeled phage clones
Source text: (§1) To examine localization of the targeting phages bound to articular tissues, human OA cartilage specimens were used for examination. Paraffin-embedded human OA tissue, synovium, and meniscus sections were retrieved from specimens of human OA surgical treatment under the approval of the Institutional Review Board of China Medical University Hospital (IRB no. CMUH108-REC1-046 and T-CMU-23728). Written informed consent was obtained, and all human tissue samples were coded for anonymity. All sections were dried, deparaffinized and rehydrated by standard protocols, and subsequently incubated with C5-87, C5-66, C5-83, C5-91, C5-24, E5-8, and C5-46 phage clones, or the control phage (5×10^8 pfu/μl). After washing, the sections were treated with anti-M13 mouse mAb (GE Healthcare) for 1 hour at room temperature. Following several washing steps, a biotin-free super sensitive polymer-HRP detection system (Biogenex, Fremont, Calif., USA) was used to detect immunoreactivity. The slides were lightly counterstained with hematoxylin, mounted with Aquatex (Merck, Darmstadt, Germany), and examined by light microscopy.

synovium = assay: Immunostaining of human OA tissue sections with phage clones: synovium; format: binding; details: HRP-labeled phage clones
Source text: as §1

OA cartilage [2] = assay: Intravital two-photon imaging of rhodamine-labeled peptides injected into rat joints; format: in vivo; details: for rhodamine fluorescence (red dots) in cartilage: intra-articular, two-photon microscopy
Description: The OA in rat model was established as previous described with slightly modification. In brief, the male SD rats≅300 grams in weight were used in this study. All animal experiments were approved by the China Medical University Committee for the Use and Care of Animals. Rats were kept under standard laboratory conditions (temperature 24° C., 12 h light-dark cycle), fed standard diet and drank tap water. Rats were anesthetized with 2.5% isofluorane (Abott, USA) in 70 ml/min flow rate before every injection. Rat joint OA was induced in the right knees in each group by injecting 0.2 ml of 4% papain solution (Sigma-Aldrich, USA) with 0.1 ml of 0.03 M cysteine (Sigma-Aldrich, USA) as activator. Same amount of saline was injected into the left knees in each group. Injection was repeated on the fourth and seventh days, respectively, and two weeks after the last papain injection, rat knees were removed for histological analysis to confirm the formation of OA. The established OA model in rats was further used in the following experiments for intraarticular injection.
The rhodamine-labeled C5-24 and scrambled peptides were separately injected into rat joints without (control) or with enzyme-induced OA. The C5-24 and scrambled peptides were chemically synthesized as accordingly (ABI, USA), modified with Biotin-PEG2-Iodoacetyl bridge linker (Thermo Fisher Scientific, USA) in HEPES buffer pH 8.0 through click reaction, further linked with avidin labeled rhodamine (Jacksonlmmuno, USA) and subjected to dialysis in ddH2O in M.W. 4K cut-off to remove the unlabeled rhodamine, further lyophilized and stored in −20° C. Aliquots of 1 μg rhodamine-labeled peptides in 40 μl PBS were used for intraarticular injection with using 30 G syringes.
Rat Knees were removed at 1-day post-injection, and both femoral condyles and tibias were cleaned thoroughly, immersed in PBS and sophisticatedly attached on 3.5 cm dish for 2-photon microscopic observation. The microscope system was operated using a near-infrared femtosecond laser (Mira 900, Coherent, USA) at the central wavelength of 810 nm, 76 MHz pulse repetition rate, and 200 fs pulse width for imaging. […] Thus, the wavelength of SHG from collagen fibers is 405 nm, while the TPEF from collagen, elastin, FAD, and NADH is approximately ranging from 450 to 650 nm. All images were obtained by a laser scanning unit (Fluoview 300, Olympus, Japan), a pair of two objective lenses for both lasers focusing and collection of photons (UPlanSApo 20×/0.75, Olympus, Japan), and two photomultiplier tubes respectively for SHG and TPEF detection (R3896, Hamamatsu, Japan). SHG and TPEF were filtered from the intense excitation laser background by a combination of band-pass filter (FF01-405/10, Semrock, USA) and color glass (BG39, Schott, Germany). And, then splitted by a dichroic mirror (FF435-Di01, Semrock, USA) and forward detected. […] Only the extinction ratio of linear polarization larger than 50:1 and the ellipticity of circular polarization (Imax/Imin) less than 1.1 after the focusing objective lens can then be used for the following two-photon imaging. The acquired images were mainly processed and analyzed with ImageJ/FiJi software (National Institutes of Health, Bethesda, Md., USA).

hPi-GL = assay: Immunocytofluorescent staining of phage clones on hPi-GL chondrocyte cell line; format: cell-based, human; details: phage clones on fixed hPi-GL cells
Description: For examination of those phage clones, slide-cultured hPi-GL cells were fixed with 4% paraformaldehyde in PBS at room temperature for 15 mins, washed with PBS and permeabilized with 0.1% Triton X-100 at room temperature for 30 mins, blocked for nonspecific binding with 1% BSA/PBST. The slide-cultured hPi-GL cells were separately incubated with 4×10^8 pfu, 8×10^8 pfu, and […] selected phage clones at 4° C. for 1 hour. After removing the unbound phages by washing, the cells were incubated with anti-M13 mouse mAb (GE Healthcare, Milwaukee, Wis., USA) as the primary antibody and R-Phycoerythrin-AffiniPure F(ab′)2 fragment goat anti-mouse IgG (Jackson ImmunoResearch Inc.) as the secondary antibody at room temperature for 1 hour, respectively. Then, washed with PBST, and counterstained with Hoechst 33258 (1 μg/ml; Sigma-Aldrich) at room temperature for 10 mins. The cells were analyzed for phage binding and localization by fluorescence using confocal microscopy (Zeiss LSM 700).

meniscus = assay: Immunostaining of human OA tissue sections with phage clones: meniscus; format: binding; details: HRP-labeled phage clones
Source text: as §1

[3] = rhodamine-labeled peptide, OA cartilage
[4] = rhodamine-labeled peptide, control cartilage

Substance	specificity for targeting the territorial region of OA cartilage (OA cartilage [1])	binding activity to cartilage (DAB intensity) (OA cartilage [1])	binding activity to the synovium (DAB intensity) (synovium)	overall fluorescent peptides binding area, OA vs control cartilage (OA cartilage [2]; all slices, FIG. 1b)	depth reached in the OA cartilage (z-axial plane) (OA cartilage [2]; [3])	rhodamine fluorescence (red dots) in cartilage (OA cartilage [2]; [3])	rhodamine fluorescence (red dots) in cartilage (OA cartilage [2]; [4])	binding to hPi-GL (immunocytofluorescent staining, M13-PE) (hPi-GL)	binding activity to the meniscus (DAB intensity) (meniscus)	ability to bind to OA cartilage (OA cartilage [2]; scrambled control peptide)
D L Q Y W Y P I W D T H (DLQYWYPIWDTH; binding to collagen XII; DOMAIN (5)..(9); DOMAIN (10)..(12)) [C5-24, 1, from phage display]	best specificity	superior binding activity	no binding activity	significant difference	at least 50 μm	red dots were observed	sparse red dots	specific and remarkable binding	no binding activity	–
D A Y W H P V W V H D P (DAYWHPVWVHDP; binding to collagen XII; DOMAIN (4)..(8)) [C5-91, 2, from phage display]	–	superior binding activity	no binding activity	–	–	–	–	specific and remarkable binding	no binding activity	–
DYLWQYPDITWH [scrambled peptide, contains all the same amino acids as the original peptide but in new random order, reference compound]	–	–	–	–	–	sparse red dots	sparse red dots	–	–	not able to bind to OA cartilage
